Test results from patent US20050169839A1, “Biomarker for efficacy of appetite suppressant drugs” (priority 2002, published 2005).
Values joined by “and” are separate entries in the source; they are usually repeats but may differ in a detail not shown here. Equal values may be shown once.

What was measured:
Format in all cases: in vivo, rat
[1] = Body weight change after 4-day dosing in male DIO rats; details: for BW change (g), mean: group mean
Method: (§1) To determine if plasma AGRP level correlates with a subject's intake of MC4R agonists given as appetite suppressants, we measured plasma AGRP level in DIO rats after treatment with specific MC4 agonists. Male DIO rats were treated either with an MC4 agonist (15 mg/kg, po, b.i.d., for 4 days, n=7) or with vehicle (n=7). The specific MC4 agonist used for treatment was (aR)-N,N-bis(4-[(tert-butylamino)carbonyl]-4-cyclohexyl 1-{4-fluoro-N-[(2-methyl-2-azabicyclo[2.2.1]hept-6-yl)carbonyl]-D-phenylalanyl}piperidin-2-yl)-4-fluoro-N-[(2-methyl-2-azabicyclo[2.2.1]hept-6-yl)carbonyl]-D-phenylalaninamide hydrochloride (hereinafter Compound A).
(§2) After 4 days of treatment with Compound A or with vehicle, plasma samples were obtained from each rat. Plasma AGRP level was thereafter determined using an RIA Kit from Phoenix Pharmaceuticals, Inc. (Belmont, Calif.).
(§3) In a different experiment, groups of male DIO rats were treated either with a second MC4R agonist (20 mg/kg, po, b.i.d., for 4 days, n=6) or with vehicle (n=5). In this study, the specific MC4 agonist used was 4-[2-methylaminocarbonyl-4-flurorphenyl]-1-{[(3S, 4R)-1-tert-butyl-4-(2,4-difluorophenyl)-pyrrolidin-3-yl]carbonyl}piperidine (hereinafter Compound B). […] For each treatment group, plasma samples were collected after 4 days of treatment and AGRP level was measured using an RIA Kit from Phoenix Pharmaceuticals, Inc. (Belmont, Calif.).
as §2, with “Male DIO rats were treated either with S(+) fenflurarnine (3 mg/kg, po, b.i.d., for 4 days, n=7) or with vehicle (n=5). […] After” for “After”

plasma AGRP = test: Plasma AGRP level (RIA) after 4-day dosing in male DIO rats; details: for AGRP (pg/0.1 mL), mean / AGRP (pg/0.1 mL): plasma; for AGRP (pg/0.1 mL), mean: group mean
Description: A human AGRP RIA assay kit (Phoenix Pharmaceuticals, Inc., Belmont, Calif.), a human leptin RIA kit (Linco Research, Inc., St. Charles, Mo.), and a human specific insulin RIA kit (Linco Research, Inc., St. Charles, Mo.), were used to measure AGRP, leptin, and insulin, respectively in human plasma samples. A Phoenix AGRP RIA kit, which contains synthetic human AGRP (aa83-132) as a standard, was also used to measure AGRP level in rat plasma samples. […] Statistical comparison is based on one-way ANOVA, t or paired t test.
as §1, §2, §3
as §2, with “Male DIO rats were treated either with S(+) fenflurarnine (3 mg/kg, po, b.i.d., for 4 days, n=7) or with vehicle (n=5). […] After” for “After”

[2] = Body weight change after 4-day sibutramine dosing in male Sprague-Dawley rats; details: sibutramine 3 mg/kg oral once daily for 4 days; mean±standard error; n=7; vehicle gained 23.6±4.16 g
Method: Male Sprague-Dawley rats (Charles River Laboratories, Wilmington, Mass.), which were 71 days of age at the beginning of the experiment, were treated with either vehicle alone (0.5% methyl cellulose; n=5 rats) or sibutramine (3 mg/kg of body weight in 0.5% methyl cellulose; n=7 rats). The treatment regime consisted of a single daily oral dose of the test compound every day for 4 days.
The body weight of each rat was measured before commencement of the experiment and at its conclusion. After 4 days of treatment with either test compound, plasma samples of each rat were collected for the measurement of AGRP level. […] The AGRP kit contains a synthetic human AGRP fragment (aa83-132) as the standard. […] For AGRP RIA, 100 μl rat plasma was used per assay. […] Statistical comparison is based on unpaired t test.

[3] = Compound B 20 mg/kg po b.i.d. 4 days, n=6
[4] = Compound B 20 mg/kg po b.i.d. 4 days, individual rats 1-6
[5] = S(+) fenfluramine 3 mg/kg po b.i.d. 4 days, n=7
[6] = S(+) fenfluramine 3 mg/kg po b.i.d. 4 days, individual rats 1-7
[7] = Compound A 15 mg/kg po b.i.d. 4 days, n=7
[8] = Compound A 15 mg/kg po b.i.d. 4 days, individual rats 1-7, hydrochloride, 15 mg/kg

## CNC(=O)c1cc(F)ccc1C1CCN(C(=O)[C@@H]2CN(C(C)(C)C)C[C@H]2c2ccc(F)cc2F)CC1 [Compound B, 4-[2-methylaminocarbonyl-4-flurorphenyl]-1-{[(3S, 4R)-1-tert-butyl-4-(2,4-difluorophenyl)-pyrrolidin-3-yl]carbonyl}piperidine]
[1]; Compound B 20 mg/kg po b.i.d. 4 days, DIO rats
  effect on body weight (in words): not effective at reducing body weight
[1]; [3]
  BW change (g), mean: 17.5 g
[1]; [4]
  BW change: 25 g (2×) and 5 g and 23 g and 15 g and 12 g
[1]; Compound B 20 mg/kg po b.i.d. 4 days, mean±standard error, vehicle gained 14.2±1.9 g
  body weight gained: 17.5 ± 3.3 g
Plasma AGRP; [3]
  AGRP (pg/0.1 mL), mean: 48.4 pg/0.1 mL
Plasma AGRP; [4]
  AGRP (pg/0.1 mL): 45.6 pg/0.1 mL and 26 pg/0.1 mL and 39.8 pg/0.1 mL and 66.9 pg/0.1 mL and 47 pg/0.1 mL and 64.8 pg/0.1 mL
Plasma AGRP; Compound B 20 mg/kg po b.i.d. 4 days, vehicle 45.8±14
  Plasma AGRP level: 48.4±6.3 pg/100 μl plasma

## CCN[C@@H](C)Cc1cccc(C(F)(F)F)c1 [S(+) fenfluramine, reference compound]
[1]; [5]
  BW change (g), mean: -16.3 g
[1]; [6]
  BW change: −25 g and −13 g (2×) and −10 g (2×) and −15 g and −28 g
[1]; S(+) fenfluramine 3 mg/kg po b.i.d. 4 days, mean±standard error, vehicle gained 14.2±1.9 g
  body weight lost: 16.3 ± 2.7 g
Plasma AGRP; [5]
  AGRP (pg/0.1 mL), mean: 48.3 pg/0.1 mL
Plasma AGRP; [6]
  AGRP (pg/0.1 mL): 39.3 pg/0.1 mL and 22.8 pg/0.1 mL and 57.8 pg/0.1 mL and 62.6 pg/0.1 mL and 94.4 pg/0.1 mL and 16.9 pg/0.1 mL and 44.6 pg/0.1 mL
Plasma AGRP; S(+) fenfluramine 3 mg/kg po b.i.d. 4 days, vehicle 45.8±14
  average plasma AGRP level: 48.3±9.9 pg/100 μl plasma

## CC(C)CC(N(C)C)C1(c2ccc(Cl)cc2)CCC1.Cl.O (centres unmarked) [sibutramine, N-{1-[1-(4-chlorophenyl)cyclobutyl]-3-methylbutyl}-N,N-dimethylamine hydrochloride monohydrate]
[2]
  body weight gained: 10 ± 4.76 g

## (aR)-N,N-bis(4-[(tert-butylamino)carbonyl]-4-cyclohexyl 1-{4-fluoro-N-[(2-methyl-2-azabicyclo[2.2.1]hept-6-yl)carbonyl]-D-phenylalanyl}piperidin-2-yl)-4-fluoro-N-[(2-methyl-2-azabicyclo[2.2.1]hept-6-yl)carbonyl]-D-phenylalaninamide hydrochloride [Compound A]
[1]; [7]
  BW change (g), mean: -4.9 g
[1]; [8]
  BW change: 2 g and 1 g and −2 g and −5 g and −7 g (2×) and −16 g
[1]; Compound A 15 mg/kg po b.i.d. 4 days, mean±standard error, vehicle gained 3.7±1.4 g
  body weight lost: 4.9 ± 2.3 g
Plasma AGRP; Compound A 15 mg/kg po b.i.d. 4 days, mean±standard error
  Plasma AGRP level: 36.2±2.5 pg/100 μl plasma
Plasma AGRP; [7]
  AGRP (pg/0.1 mL), mean: 36.2 pg/0.1 mL
Plasma AGRP; [8]
  AGRP (pg/0.1 mL): 35.8 pg/0.1 mL and 42.2 pg/0.1 mL and 38.1 pg/0.1 mL and 46.2 pg/0.1 mL and 33 pg/0.1 mL and 26.5 pg/0.1 mL and 31.6 pg/0.1 mL
